Results on four molecules are retold here after article PMC10717410, “TMC4 is a novel chloride channel involved in high-concentration salt taste sensation” (The Journal of Physiological Sciences : JPS, 2021).

Where a name gives a salt, the structure may show the parent alone.

Holding throughout (assay type): cell-based
In assay [1] the target is T1, mouse TMC4 (mTMC4) (Mus musculus, UniProt Q7TQ65).
T1 construct: coding region from circumvallate papillae cDNA in pIRES2-AcGFP1 with IRES and GFP removed; transiently expressed in HEK293T with separate EGFP plasmid
T1 sequence (Q7TQ65 1-694): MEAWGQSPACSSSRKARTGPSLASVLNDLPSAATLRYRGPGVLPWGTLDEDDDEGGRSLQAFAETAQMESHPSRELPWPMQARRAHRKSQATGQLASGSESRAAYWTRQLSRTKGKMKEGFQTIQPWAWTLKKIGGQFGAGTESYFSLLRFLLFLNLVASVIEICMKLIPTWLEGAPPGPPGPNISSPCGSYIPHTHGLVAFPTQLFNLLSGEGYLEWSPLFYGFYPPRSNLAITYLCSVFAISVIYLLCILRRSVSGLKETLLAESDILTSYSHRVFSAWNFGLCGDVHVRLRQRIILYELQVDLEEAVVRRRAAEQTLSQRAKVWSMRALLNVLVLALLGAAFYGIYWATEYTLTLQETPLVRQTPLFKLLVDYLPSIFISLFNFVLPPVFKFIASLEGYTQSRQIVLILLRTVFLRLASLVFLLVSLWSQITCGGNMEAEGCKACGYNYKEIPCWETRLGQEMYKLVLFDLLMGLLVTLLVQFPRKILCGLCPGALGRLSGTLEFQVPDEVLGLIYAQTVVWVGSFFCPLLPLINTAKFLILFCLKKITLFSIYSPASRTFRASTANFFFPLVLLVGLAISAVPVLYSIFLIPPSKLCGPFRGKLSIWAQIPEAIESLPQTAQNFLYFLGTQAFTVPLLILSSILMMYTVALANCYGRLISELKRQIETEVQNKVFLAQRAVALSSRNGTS
In words: whole-cell patch clamp, transfected HEK293T. The note with it: pH 7.4 bath, pH 7.2 pipette, about 25 °C.

Another assay concerns the target T2, human TMC4 (hTMC4) (Homo sapiens, UniProt Q7Z404).
T2 construct: coding region of purchased cDNA (Dharmacon) in pIRES2-AcGFP1 with IRES and GFP removed; transiently expressed in HEK293T
T2 sequence (Q7Z404 1-712): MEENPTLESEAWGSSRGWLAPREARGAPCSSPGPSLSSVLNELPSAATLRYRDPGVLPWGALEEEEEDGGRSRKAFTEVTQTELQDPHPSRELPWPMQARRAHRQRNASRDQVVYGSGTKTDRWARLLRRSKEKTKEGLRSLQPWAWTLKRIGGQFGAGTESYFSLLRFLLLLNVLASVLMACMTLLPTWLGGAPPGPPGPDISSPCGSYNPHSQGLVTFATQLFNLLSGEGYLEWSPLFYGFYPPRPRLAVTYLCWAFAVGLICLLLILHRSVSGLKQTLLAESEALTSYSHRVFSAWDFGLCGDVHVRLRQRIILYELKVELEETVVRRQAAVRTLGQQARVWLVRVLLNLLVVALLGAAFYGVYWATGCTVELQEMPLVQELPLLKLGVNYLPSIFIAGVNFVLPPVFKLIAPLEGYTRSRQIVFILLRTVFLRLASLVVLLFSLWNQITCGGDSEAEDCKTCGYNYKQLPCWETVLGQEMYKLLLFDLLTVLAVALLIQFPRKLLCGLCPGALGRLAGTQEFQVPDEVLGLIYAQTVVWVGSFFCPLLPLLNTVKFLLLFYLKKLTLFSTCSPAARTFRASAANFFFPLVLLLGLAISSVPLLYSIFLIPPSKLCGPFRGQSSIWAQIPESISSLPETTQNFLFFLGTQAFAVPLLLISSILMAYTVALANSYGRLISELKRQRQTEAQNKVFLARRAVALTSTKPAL
In words: whole-cell patch clamp, step pulses, transfected HEK293T. The note with it: pH 7.4 bath, pH 7.2 pipette, about 25 °C; channel blocker. For orientation: In patch-clamp work, channel activity is measured electrically.

Assay [2] has as its target T1, mouse TMC4 (mTMC4). The description is as above. The note with it: NMDG-Cl pipette, pH 7.4 bath, pH 7.2 pipette, about 25 °C, channel blocker.
The target in assay [3] is T1, mouse TMC4 (mTMC4). Put plainly: whole-cell patch clamp, bath chloride fully replaced by gluconate. The following applies: permeating anion; NMDG-Cl pipette; pH 7.4 bath, about 25 °C.

For the molecule `CC(C)(C)C1CCc2c(sc(NC(=O)c3ccco3)c2C(=O)O)C1` (centres unmarked) [CaCC(inh)-A01], the “Iblocker/Icontrol at + 60 mV” value on mouse TMC4 (mTMC4) [1] is on record as “mTMC4-mediated currents were inhibited by CaCC(inh)-A01”.
Regarding `CNCCC(Oc1ccc(C(F)(F)F)cc1)c1ccccc1` (centres unmarked) [Fluoxetine hydrochloride], the “Iblocker/Icontrol at + 60 mV” value on mouse TMC4 (mTMC4) [1] (100 μM compound) was “Fluoxetine hydrochloride and tannic acid also inhibited mTMC4-mediated currents”.
Regarding `O=C(O)c1cc([N+](=O)[O-])ccc1NCCCc1ccccc1` [NPPB, 5-nitro-2-(3-phenylpropylamino) benzoic acid], at human TMC4 (hTMC4), the current reduction result is “hTMC4) also functions as a Cl^− channel with a similar voltage dependency and is inhibited by NPPB”. Also, on mouse TMC4 (mTMC4) [2], the “Iblocker/Icontrol at + 60 mV” value is “mTMC4-mediated currents were strongly inhibited by the NPPB”.
For the molecule `O=C(O)[C@H](O)[C@@H](O)[C@H](O)[C@H](O)CO` [gluconate], the “whole-cell patch clamp, bath chloride fully replaced by gluconate” value on mouse TMC4 (mTMC4) [3] is recorded as “outward currents did not disappear even when the bath solution was completely substituted with Na-gluconate”.
